Laboratory results reported in patent US7455984B2, “Immunoreactive and immunotherapeutic molecules” (The Walter and Eliza Hall Institute of Medical Research, priority 1995, dated 2008).

Test system: Peripheral blood mononuclear cells from IDDM at-risk and HLA-DR matched control subjects
Experiment: T-cell proliferation assay ([3H]thymidine incorporation, delta score), ten HLA-DR matched pairs
Format: cell-based, human
Conditions: for Reactivity (T-cell proliferation) by subject group: IDDM at-risk and control subjects, ten pairs; for Delta Score, Mean: mean of 10 subjects; for T-cell proliferative response, IDDM at-risk versus control subjects: highest concentration of peptide, Wilcoxon one-tailed paired analysis (proinsulin p<0.008; GAD p<0.018)

In the case of “CRFDPQFALTNIAVRK [unrelated control peptide, irrelevant control peptide (Macromolecular Resources, Fort Collins, Colo.), reference compound]”, the “Reactivity (T-cell proliferation) by subject group” value (“Reactivity (T-cell proliferation)” below) is reported as “no subject reacted”.
In the case of “FFYTPKTRREAED [Proinsulin, synthetic 13-mer peptide of human proinsulin, amino acid residues 24-36]”, the “Reactivity (T-cell proliferation)” value is reported as “confined almost entirely to IDDM at-risk subjects”, the “Delta Score, Mean” value (Proinsulin 0.4 μg/ml, At Risk, Wilcoxon one-tailed P 0.054 vs Control) is reported as 136.0 cpm and the “Delta Score” value (Proinsulin 0.4 μg/ml, Control subject of each pair) is reported as 0 cpm. The “Delta Score, Mean” value (Proinsulin 0.4 μg/ml, Control) was 0 cpm, the “Delta Score, Mean” value (Proinsulin 2 μg/ml, At Risk, Wilcoxon one-tailed P 0.125 vs Control) was 251.1 cpm and the “Delta Score, Mean” value (Proinsulin 2 μg/ml, Control) was 45.8 cpm. The “Delta Score, Mean” value (Proinsulin 10 μg/ml, At Risk, Wilcoxon one-tailed P 0.008 vs Control) was 558.7 cpm, the “Delta Score, Mean” value (Proinsulin 10 μg/ml, Control) was 27.6 cpm and the “T-cell proliferative response, IDDM at-risk versus control subjects” value was “greater among IDDM at-risk than control subjects”.
In the case of “FWYIPPSLRTLED [GAD, synthetic 13-mer peptide of human GAD 65, amino acid residues 506-518]”, the “Delta Score, Mean” value (GAD 0.4 μg/ml, At Risk, Wilcoxon one-tailed P 0.199 vs Control) is reported as 135.3 cpm, the “Delta Score, Mean” value (GAD 0.4 μg/ml, Control) is reported as 34.1 cpm and the “Delta Score, Mean” value (GAD 2 μg/ml, At Risk, Wilcoxon one-tailed P 0.199 vs Control) is reported as 133.0 cpm. The “Delta Score, Mean” value (GAD 2 μg/ml, Control) was 178.2 cpm, the “Delta Score, Mean” value (GAD 10 μg/ml, At Risk, Wilcoxon one-tailed P 0.018 vs Control) was 1042.4 cpm and the “Delta Score, Mean” value (GAD 10 μg/ml, Control) was 318.1 cpm. For the same sequence, the “Reactivity (T-cell proliferation)” value was “some controls also responded” and the “T-cell proliferative response, IDDM at-risk versus control subjects” value was “greater among IDDM at-risk than control subjects”.
